In paper PMC10174317, “^18F-labeled FGFR1 peptide: a new PET probe for subtype FGFR1 receptor imaging” (Frontiers in Oncology, 2023):
Where a SMILES comes first, the peptide text is derived from it. The star is where a group is joined. NOTA = O=C(O)CN1CCN(CC(=O)O)CCN(CC(=O)*)CC1; AEEA = NCCOCCOCC(=O)O

Columns and labels:
[1] = system: RT-112, A549, SNU-16 and Calu-3 cells; assay: Cellular internalization study; format: cell-based, human; conditions: acid wash with acetate buffer pH 2.5, four cell lines, P > 0.5, n = 6
Description: Internalization studies were performed according to the planned experiments. Thirty microliters (111 KBq, 1.81-2.53 GBq/μmol) of [^18F]F-FGFR1 was incubated with fresh medium in 24-well plates. The medium was discarded at predetermined time points, and the wells were rinsed twice with 1000 µl of PBS. Then, 1000 µl of acetate buffer (0.2 M acetic acid/0.5 M NaCl, pH 2.5) was added to the wells to remove surface-bound radioactivity. After removing the acetate buffer, the cells were washed twice with 1000 µl of PBS. The acetate buffer and PBS were collected and marked as Cs. The radioactivity of the collected cell lysate was measured and defined as Cin. The internalization rate was assessed in a similar method to the cell uptake rate calculation: Cin/(Cin + Cs).

[2] = In vitro stability in normal saline (RP-HPLC); format: physicochemical; conditions: 37°C, 1, 2, 4 and 6 h
Description: The in vitro and in vivo stability of [^18F]F-FGFR1 was evaluated by RP-HPLC analysis. […] The radiochemical purity of the final compounds was determined by RP-HPLC.

[3] = Micro-PET/CT biodistribution in RT-112 xenografts; format: in vivo, BALB/c nude mice; conditions: female, BALB/c nude, mouse, iv, total radioactivity, 11.1 MBq tail vein, micro-PET/CT ROI, mean ± SD; for tissue uptake at 0.5 h: 30 min post-injection; for tissue uptake at 1 h: 60 min post-injection; for tissue uptake at 2 h: 120 min post-injection
Description: (§1) All animal experiments were carried out in accordance with the Laboratory Animal Ethical Review of Animal Guidelines of China. BALB/c nude mice (sex, female; age, 4 weeks, body weight range, 19-21 g; China) were used for this study. Four cell lines (2*10^7 cells/nude mouse) were subcutaneously injected into the right forelimb to induce solid tumors. All xenograft nude mice were housed in laminar flow cabinets in a specific pathogen-free (SPF) environment and were provided ad libitum access to food and water at the Laboratory Animal Center of the Fourth Hospital of Hebei Medical University (China). The indication for micro-PET/CT imaging was xenografts with a tumor volume of 50-130 mm^3. All animal experiments strictly adhered to the Principles of the Laboratory Animal Ethical Committee of the Fourth Hospital Hebei Medical University (No. 2020016).
(§2) Xenograft mice (n=5) were fastly injected of 200 µl of [^18F]F-FGFR1 (11.1 MBq) through tail vein. For the in vivo blocking study, RT-112 (FGFR1-high expression) tumor-bearing mice (n = 5) were injected with a tracer that was mixed with 200-fold (1.58 mg) unlabeled peptide to saturate the receptors in the tumors. Mice were anesthetized via 3% isoflurane inhalation (RWD Life Science Inc. China) for induction and 2% isoflurane inhalation for maintenance. Micro-PET/CT imaging was performed on a micro-PET/SPECT/CT machine (NOVEL MEDICAL Equipment Ltd. China). Whole-body scans were performed 30, 60 and 120 min after tracer administration. The CT scanning parameters were 80 kV, 0.5 mA, 2000 ms/frames, and 360 frames; the images were reconstructed with a 512*512 matrix and a slice thickness of 0.18 mm. PET images were acquired with a 140*140 matrix and 10 min of total acquisition time. Reconstructed images were processed with the comprehensive image analysis software Pmod v4.201 (PMOD Technologies LLC. Switzerland). The biodistribution of the major organs (brain, heart, lung, liver, kidney, bone and muscle) and tumor were analyzed by manually outlining the regions of interest (ROIs) of the entire organs and tissue at each time point of the micro-PET/CT scan. The radioactivity accumulated in bone and muscle was measured in the limbs without xenograft tumors.

[4] = system: RT-112 cells (FGFR1-high expression); assay: Cellular uptake and blocking study; format: cell-based, human
Description: RT-112, A549, SNU-16 and Calu-3 cells were cultured at a density of 1*10^5 cells per well in 24-well plates the day before cellular uptake experiments. Cells were rinsed twice with 1000 µl of phosphate-buffered saline (PBS) (BI, Israel), followed by 1000 µl of growth medium. Then, 30 µl (111 KBq, 1.81-2.53 GBq/μmol) of [^18F]F-FGFR1 was added to each well, and the cells were incubated with the peptide for 15, 30, 60 and 120 min. At each cutoff time, 6 wells of supernatant were collected. The collected wells were washed twice with 1000 µl of PBS. Radioactivity counts were marked as Cout. […] After 500 µl of trypsin-EDTA digestion of the adherent cells and washed twice with 1000 µl of PBS, the collected cells were defined as Cin. Radioactivity was counted with an automatic γ counter. The formula for the cell uptake rate was as follows: Cin/(Cin + Cout).
To determine the specific binding of [^18F]F-FGFR1 with FGFR1 on the cell surface, 200-fold unlabeled peptide (220 µg) and 30 µl of [^18F]F-FGFR1 (111 KBq) were added to RT-112 cells at the same time. The supernatants were removed after 120 min of incubation. The subsequent steps of cell collection and radioactivity detection were performed as described above. The cell uptake rate was calculated by Cin/(Cin + Cout).

[5] = Micro-PET/CT biodistribution in A549 xenografts; format: in vivo, BALB/c nude mice; conditions: female, BALB/c nude, mouse, iv, total radioactivity, 11.1 MBq tail vein, micro-PET/CT ROI, mean ± SD; for tissue uptake at 0.5 h: 30 min post-injection; for tissue uptake at 1 h: 60 min post-injection; for tissue uptake at 2 h: 120 min post-injection
Description: as §1, §2

[6] = bone, n=5, read-out: Biodistribution, Bone
[7] = brain, n=5, read-out: Biodistribution, Brain
[8] = heart, n=5, read-out: Biodistribution, Heart
[9] = kidney, n=5, read-out: Biodistribution, Kidney
[10] = liver, n=5, read-out: Biodistribution, Liver
[11] = lung, n=5, read-out: Biodistribution, Lung
[12] = muscle, n=5, read-out: Biodistribution, Muscle
[13] = tumor, n=5, read-out: Biodistribution, Tumor

CC(C)C[C@H](NC(=O)[C@H](CO)NC(=O)[C@H](CCCCN)NC(=O)[C@H](Cc1c[nH]c2ccccc12)NC(=O)[C@H](CCC(=O)O)NC(=O)[C@H](C)NC(=O)[C@H](CCCCN)NC(=O)COCCOCCNC(=O)CN1CCN(CC(=O)O)CCN(CC(=O)O)CC1)C(=O)NCC(=O)N[C@@H](CCC(=O)O)C(=O)N[C@@H](CCC(=O)O)C(=O)N[C@@H](C)C(=O)N[C@@H](Cc1c[nH]c2ccccc12)C(=O)N[C@@H](Cc1c[nH]cn1)C(=O)N[C@@H](CO)C(=O)N[C@@H](CCCCN)C(=O)O [[^18F]F-FGFR1] ({NOTA-AEEA}-KAEWKSLGEEAWHSK-OH; N-terminus and C-terminus assumed)
Internalization fraction Cin/(Cin + Cs) [1]: not significantly different in the four cell lines
Radiochemical purity after incubation (in vitro stability) [2]: exceeded 90%
tissue uptake at 0.5 h [3, 6]: 0.33 ± 0.1 %ID/g
tissue uptake at 1 h [3, 6]: 0.35 ± 0.12 %ID/g
tissue uptake at 2 h [3, 6]: 0.48 ± 0.23 %ID/g
tissue uptake at 0.5 h [3, 7]: 0.66 ± 0.05 %ID/g
tissue uptake at 1 h [3, 7]: 0.69 ± 0.03 %ID/g
tissue uptake at 2 h [3, 7]: 0.03 ± 0.01 %ID/g
tissue uptake at 0.5 h [3, 8]: 1.02 ± 0.11 %ID/g
tissue uptake at 1 h [3, 8]: 0.75 ± 0.06 %ID/g
tissue uptake at 2 h [3, 8]: 0.1 ± 0.03 %ID/g
tissue uptake at 0.5 h [3, 9]: 9.44 ± 0.58 %ID/g
tissue uptake at 1 h [3, 9]: 6.85 ± 0.77 %ID/g
tissue uptake at 2 h [3, 9]: 19 ± 4.82 %ID/g
tissue uptake at 0.5 h [3, 10]: 1.35 ± 0.23 %ID/g
tissue uptake at 1 h [3, 10]: 1.43 ± 0.06 %ID/g
tissue uptake at 2 h [3, 10]: 0.17 ± 0.08 %ID/g
tissue uptake at 0.5 h [3, 11]: 0.75 ± 0.11 %ID/g
tissue uptake at 1 h [3, 11]: 0.65 ± 0.09 %ID/g
tissue uptake at 2 h [3, 11]: 0.14 ± 0.05 %ID/g
tissue uptake at 0.5 h [3, 12]: 0.24 ± 0.05 %ID/g
tissue uptake at 1 h [3, 12]: 0.28 ± 0.03 %ID/g
tissue uptake at 2 h [3, 12]: 0.09 ± 0.02 %ID/g
tissue uptake at 0.5 h [3, 13]: 3.84 ± 0.17 %ID/g
tissue uptake at 1 h [3, 13]: 2.6 ± 0.1 %ID/g
tissue uptake at 2 h [3, 13]: 1.35 ± 0.07 %ID/g
Cellular uptake in RT-112 versus A549, SNU-16 and Calu-3 cells ([4]; 15, 30, 60 and 120 min incubation, P < 0.001, n = 6): consistently higher in RT-112 cell line
Cell uptake rate Cin/(Cin + Cout), blocked ([4]; RT-112 cells, 111 KBq tracer with 200-fold excess unlabeled peptide (220 µg), 120 min, mean ± SD, n = 6): 0.24 ± 0.05
Cell uptake rate Cin/(Cin + Cout) ([4]; RT-112 cells, 111 KBq tracer, 120 min incubation, γ counter, mean ± SD, n = 6): 5.11 ± 0.63
tissue uptake at 0.5 h [5, 6]: 0.33 ± 0.1 %ID/g
tissue uptake at 1 h [5, 6]: 0.35 ± 0.06 %ID/g
tissue uptake at 2 h [5, 6]: 0.39 ± 0.02 %ID/g
tissue uptake at 0.5 h [5, 7]: 0.61 ± 0.06 %ID/g
tissue uptake at 1 h [5, 7]: 0.72 ± 0.13 %ID/g
tissue uptake at 2 h [5, 7]: 0.64 ± 0.17 %ID/g
tissue uptake at 0.5 h [5, 8]: 0.9 ± 0.09 %ID/g
tissue uptake at 1 h [5, 8]: 0.88 ± 0.04 %ID/g
tissue uptake at 2 h [5, 8]: 0.64 ± 0.07 %ID/g
tissue uptake at 0.5 h [5, 9]: 9.35 ± 1.87 %ID/g
tissue uptake at 1 h [5, 9]: 7.89 ± 1.06 %ID/g
tissue uptake at 2 h [5, 9]: 4.46 ± 0.6 %ID/g
tissue uptake at 0.5 h [5, 10]: 1.53 ± 0.11 %ID/g
tissue uptake at 1 h [5, 10]: 1.52 ± 0.18 %ID/g
tissue uptake at 2 h [5, 10]: 1.58 ± 0.08 %ID/g
tissue uptake at 0.5 h [5, 11]: 0.69 ± 0.12 %ID/g
tissue uptake at 1 h [5, 11]: 0.65 ± 0.04 %ID/g
tissue uptake at 2 h [5, 11]: 0.53 ± 0.07 %ID/g
tissue uptake at 0.5 h [5, 12]: 0.27 ± 0.03 %ID/g
tissue uptake at 1 h [5, 12]: 0.27 ± 0.02 %ID/g
tissue uptake at 2 h [5, 12]: 0.28 ± 0.02 %ID/g
tissue uptake at 0.5 h [5, 13]: 0.87 ± 0.08 %ID/g
tissue uptake at 1 h [5, 13]: 0.64 ± 0.08 %ID/g
tissue uptake at 2 h [5, 13]: 0.53 ± 0.04 %ID/g
